Measured values taken from patent US9675077B2, “Composition comprising antimicrobial metal ions and a quaternary cationic surfactant” (CONVATEC TECHNOLOGIES INC., priority 2011, dated 2017).

Tests used:
bacterial biofilms = assay: MBEC (Minimum Biofilm Eradication Concentration) assay using the Calgary Biofilm Device; format: cell-based; conditions: for MBEC for the metal ion, Without DDAC: metal ion solution alone, adjusted to approx. pH 5.5; for MBEC for the metal ion, Without DDAC / MBEC for the metal ion, With 0.1% DDAC: lowest concentration at which activity was observed, values approximate; for MBEC for the metal ion, With 0.1% DDAC: metal ion solution in combination with 0.1% DDAC, approx. pH 5.5; for Synergy: metal ion with 0.1% DDAC versus metal ion without DDAC
[1] = system: a range of microorganisms in the biofilm state

Compound: O=C(O)CN(CCN(CC(=O)O)CC(=O)O)CC(=O)O [EDTA, ethylenediaminetetra-acetic acid]
- Effect of EDTA on the synergistic antimicrobial activity of cationic surfactant and metal ion (bacterial biofilms; […] w/w di-sodium EDTA in each test solution): further enhances the synergistic antimicrobial activity
- EDTA concentration effective in making biofilm microorganisms vulnerable to antimicrobial agents [1]: 0.25-0.5 % weight by volume

Compound: O=[N+]([O-])[O-].O=[N+]([O-])[O-].O=[N+]([O-])[O-].[Ga+3] [Gallium, gallium (III) nitrate]
- MBEC for the metal ion, Without DDAC (bacterial biofilms): >1000 ppm
- MBEC for the metal ion, With 0.1% DDAC (bacterial biofilms): ≦0.24 ppm
- Synergy (bacterial biofilms): +ve

Compound: O.O.O.O.O.O.O.O=S(=O)([O-])[O-].[Fe+2] [Iron (II), iron (II) sulphate heptahydrate]
- MBEC for the metal ion, Without DDAC (bacterial biofilms): >1000 ppm
- MBEC for the metal ion, With 0.1% DDAC (bacterial biofilms): ≦0.24 ppm
- Synergy (bacterial biofilms): +ve

Compound: O.O.O.O.[Cl][Mn][Cl] [Manganese, manganese (II) chloride tetrahydrate]
- MBEC for the metal ion, Without DDAC (bacterial biofilms): >1000 ppm
- MBEC for the metal ion, With 0.1% DDAC (bacterial biofilms): ≦0.24 ppm
- Synergy (bacterial biofilms): +ve

Compound: O=[N+]([O-])[O-].[Ag+] [Silver, silver nitrate]
- Effectiveness against biofilms in the MBEC model (bacterial biofilms; 0.01% w/w silver, 0.1M acetate buffer, pH 4.7 to 7.7, no surfactant): None of the 0.01% silver solutions pH buffered in the range 4.7 to 7.7 were effective against biofilms
- MBEC for the metal ion, Without DDAC (bacterial biofilms): 12.5 ppm
- MBEC for the metal ion, With 0.1% DDAC (bacterial biofilms): 0.097 ppm
- Synergy (bacterial biofilms): +ve

Compound: copper (II) nitrate trihydrate
- MBEC for the metal ion, Without DDAC (bacterial biofilms): 15.6 ppm
- MBEC for the metal ion, With 0.1% DDAC (bacterial biofilms): 1.95 ppm
- Synergy (bacterial biofilms): +ve

Compound: iron (III) sulphate hydrate
- MBEC for the metal ion, Without DDAC (bacterial biofilms): >1000 ppm
- MBEC for the metal ion, With 0.1% DDAC (bacterial biofilms): ≦0.24 ppm
- Synergy (bacterial biofilms): +ve

Compound: zinc sulphate heptahydrate
- MBEC for the metal ion, Without DDAC (bacterial biofilms): >1000 ppm
- MBEC for the metal ion, With 0.1% DDAC (bacterial biofilms): ≦125 ppm
- Synergy (bacterial biofilms): +ve
